According to patent US20260098061A1, “EPHA2-BINDING PENDING PEPTIDE AND COMPOSITION COMPRISING SAME” (PeptiDream Inc., priority 2022, published 2026):
Numbered stars: 1 amine (or outer) side, 2 acyl side, 3 side chain; on linkers, the order of the positions; unused ones are H or OH. Bridge positions count the residues as written; N and C are the ends. Square brackets hold non-standard residues; d marks the D form. Primed or numbered codes have the meaning given here. Side chains are listed from the residue outwards. Peptide text beside a SMILES is read from it. * marks the point of attachment. Qglucamine = (2S)-2-amino-4-{[(2S,3R,4R,5R)-2,3,4,5,6-pentahydroxyhexyl]carbamoyl}butanoic acid, O=C(CC[C@H](N[*:1])C(=O)[*:2])NC[C@H](O)[C@@H](O)[C@H](O)[C@H](O)CO; Hgn(3) = 2-amino-5-carbamoylpentanoic acid (homoglutamine), NC(=O)CCC[C@H](N[*:1])C(=O)[*:2]; Hgn = (2S)-2-amino-5-carbamoylpentanoic acid, NC(=O)CCC[C@H](N[*:1])C(=O)[*:2]; NH(1-deoxy-D-glucityl) = OC[C@@H](O)[C@@H](O)[C@H](O)[C@@H](O)CN*; Trp(1-Me,7-Cl) = Cn1cc(C[C@H](N)C(=O)O)c2cccc(Cl)c21; Ala(2-NH2-4-pyridyl) = Nc1cc(C[C@H](N)C(=O)O)ccn1; dPhe(3-CONH2) = NC(=O)c1cccc(C[C@@H](N)C(=O)O)c1; Piperazinyl(4-CH2COOH) = O=C(O)CN1CCN(*)CC1; Trp(1-Me) = Cn1cc(C[C@H](N)C(=O)O)c2ccccc21; 3Pal(6-NH2) = Nc1ccc(C[C@H](N)C(=O)O)cn1; NMe3Pal = CN[C@@H](Cc1cccnc1)C(=O)O; NMeF = CN[C@@H](Cc1ccccc1)C(=O)O; hArg = N=C(N)NCCCC[C@H](N)C(=O)O; hCit = NC(=O)NCCCC[C@H](N)C(=O)O; 4Pal = N[C@@H](Cc1ccncc1)C(=O)O; Gly(cBu) = N[C@H](C(=O)O)C1CCC1; NMeE = CN[C@@H](CCC(=O)O)C(=O)O; Aad = N[C@@H](CCCC(=O)O)C(=O)O; CO = O=C([*:1])[*:2]; βAla = NCCC(=O)O

Experiments:
[1] = target: T1, Recombinant Human EphA2 Fc Protein (Homo sapiens, UniProt P29317); assay: SPR interaction analysis (Biacore T200), kinetics of peptides against EphA2; format: binding; details: Recombinant Human EphA2 Fc Protein captured by Human Antibody Capture kit; single-cycle kinetics; 25° C.; HBS-P+ buffer with 1% DMSO
T1 construct: purchased Elabscience
Outline: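 On a Biacore T200 at 25° C, Fc-tagged human EphA2 was captured via anti-human antibody; peptides ran as five serial dilutions in HBS-P+ pH 7.4 with 1% DMSO by single-cycle kinetics. Baseline-subtracted data fitted for ka and kd, from which KD was derived.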

[2] = target: T2, Recombinant Human EphA2 Fc Protein (Fc tag, Elabscience) (human, UniProt P29317 24-534); assay: SPR Biacore T200, EphA2-Fc captured, single-cycle kinetics; grade, legend 0 < A ≤ 1 nM
T2 construct: Bought protein (Elabscience), captured with the Human Antibody Capture kit; also called hEphA2; not shown: Fc tag of the commercial protein
T2 sequence (P29317 24-534 limits assumed): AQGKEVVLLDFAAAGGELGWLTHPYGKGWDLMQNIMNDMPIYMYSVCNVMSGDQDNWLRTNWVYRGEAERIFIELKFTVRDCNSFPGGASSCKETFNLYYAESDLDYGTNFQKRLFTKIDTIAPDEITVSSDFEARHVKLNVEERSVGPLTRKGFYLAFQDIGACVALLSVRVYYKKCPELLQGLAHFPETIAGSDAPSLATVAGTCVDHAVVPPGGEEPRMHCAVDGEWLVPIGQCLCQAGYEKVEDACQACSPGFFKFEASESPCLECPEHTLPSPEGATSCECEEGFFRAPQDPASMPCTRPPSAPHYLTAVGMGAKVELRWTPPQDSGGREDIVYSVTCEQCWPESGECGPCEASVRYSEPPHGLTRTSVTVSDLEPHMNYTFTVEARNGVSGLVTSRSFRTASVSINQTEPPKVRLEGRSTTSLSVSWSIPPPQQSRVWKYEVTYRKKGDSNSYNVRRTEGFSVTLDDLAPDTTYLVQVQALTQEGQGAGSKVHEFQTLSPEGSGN
Description: The HBS-P+ buffer (10 mM HEPES (pH7.4), 150 mM NaCl, 0.05% (v/V) Surfactant P20) containing 1% DMSO was used as running buffer. Recombinant Human EphA2 Fc Protein (Fc tag, Elabscience) was captured by Human Antibody Capture kit (Cytiva). Peptide samples in DMSO were diluted with running buffer, and prepared five serial dilutions. Using these serial dilutions, kinetics of peptides against EphA2 was measured at a flow rate of 30 mL/min at 25° C. The method adopted for sample measurement was a single-cycle kinetics method. The analysis was conducted using the evaluation software 3.0 provided with Biacore T200. Kinetics fitting was done on the difference data obtained by subtracting the baseline data from sample measurement data. KD values were calculated based on the association rate constant (ka) and dissociation rate constant (kd).

Row | Molecule | Kd [1] [nM] | Kd [2] [nM]
1 | CC(C)C[C@@H]1NC(=O)[C@H](Cc2ccnc(N)c2)NC(=O)[C@H](Cc2ccccc2)NC(=O)CSC[C@@H](C(=O)NCC(N)=O)NC(=O)[C@H](Cc2cn(C)c3ccccc23)NC(=O)[C@H](Cc2ccccc2)N(C)C(=O)[C@H](Cc2cn(C)c3ccccc23)NC(=O)[C@H](CCCCNC(N)=O)NC1=O [PDC_EphA2-00022601, F-4Py2NH2-L-Hcit-W1Me-MeF-W1Me-C-G-NH2] ({CH2CO}-F[Ala(2-NH2-4-pyridyl)]L[hCit][Trp(1-Me)][NMeF][Trp(1-Me)]CG-NH2; thioether N-8) | 100 to 400 | –
2 | CC(C)C[C@@H]1NC(=O)[C@H](CC(N)=O)NC(=O)[C@H](Cc2c[nH]cn2)NC(=O)[C@H](Cc2ccccc2)NC(=O)CSC[C@@H](C(=O)NCC(N)=O)NC(=O)[C@H](Cc2cn(C)c3ccccc23)NC(=O)[C@H](CCCCNC(N)=O)NC(=O)[C@H](Cc2cn(C)c3ccccc23)NC(=O)[C@H](Cc2ccccc2)N(C)C(=O)[C@H](CO)NC1=O [PDC_EphA2-00022606, F-H-N-L-S-MeF-W1Me-Hcit-W1Me-C-G-NH2] ({CH2CO}-FHNLS[NMeF][Trp(1-Me)][hCit][Trp(1-Me)]CG-NH2; thioether N-10) | 10 to 100 | –
3 | CC(=O)NCCCC[C@@H](NC(=O)CCNC(=O)[C@@H]1CSCC(=O)N[C@H](C)C(=O)N(C)[C@@H](Cc2cccnc2)C(=O)N[C@@H](CC(N)=O)C(=O)N[C@@H](CC(C)C)C(=O)N[C@@H](CCCC(=O)O)C(=O)N(C)[C@@H](Cc2ccccc2)C(=O)N[C@@H](Cc2cn(C)c3ccccc23)C(=O)N[C@@H](CCCCNC(=O)N2CCN(CC(=O)O)CC2)C(=O)N[C@@H](Cc2cn(C)c3ccccc23)C(=O)N[C@@H]([C@@H](C)O)C(=O)N[C@@H](CCC(=O)O)C(=O)N1)C(N)=O [PDC_EphA2-00008087, da-Me3Py-N-L-Hgl-MeF-W1Me-KCOpipzaa-W1Me-T-E-C-bA-dkAc-NH2] ({CH2CO}-[dA][NMe3Pal]NL[Aad][NMeF][Trp(1-Me)]K([CO-Piperazinyl(4-CH2COOH)])[Trp(1-Me)]TEC[βAla][dK](Ac)-NH2; thioether N-12) | < 1 | –
4 | CC(C)C[C@@H]1NC(=O)[C@H](CC(N)=O)NC(=O)[C@H](Cc2cccnc2)N(C)C(=O)[C@@H](C)NC(=O)CSC[C@@H](C(N)=O)NC(=O)[C@H](CC(=O)N(C)C)NC(=O)[C@H]([C@@H](C)O)NC(=O)[C@H](Cc2cn(C)c3ccccc23)NC(=O)[C@H](CCCCNC(=O)N2CCN(CC(=O)O)CC2)NC(=O)[C@H](Cc2cn(C)c3ccccc23)NC(=O)[C@H](Cc2ccccc2)N(C)C(=O)[C@H](CCCC(=O)O)NC1=O [PDC_EphA2-00018529, da-Me3Py-N-L-Hgl-MeF-W1Me-KCOpipzaa-W1Me-T-Ndm-C-NH2] ({CH2CO}-[dA][NMe3Pal]NL[Aad][NMeF][Trp(1-Me)]K([CO-Piperazinyl(4-CH2COOH)])[Trp(1-Me)]TD(NMe2)C-NH2; thioether N-12) | < 1 | –
5 | C[C@H]1NC(=O)CSC[C@@H](C(N)=O)NC(=O)[C@H](CC(N)=O)NC(=O)[C@H]([C@@H](C)O)NC(=O)[C@H](Cc2cn(C)c3ccccc23)NC(=O)[C@H](CCCCNC(=O)N2CCN(CC(=O)O)CC2)NC(=O)[C@H](Cc2cn(C)c3ccccc23)NC(=O)[C@H](Cc2ccccc2)N(C)C(=O)[C@H](CCCC(N)=O)NC(=O)[C@H](C2CCC2)NC(=O)[C@H](CC(N)=O)NC(=O)[C@H](Cc2cccnc2)N(C)C1=O [PDC_EphA2-00010004, da-Me3Py-N-Cbg-Hgn-MeF-W1Me-KCOpipzaa-W1Me-T-N-C-NH2] ({CH2CO}-[dA][NMe3Pal]N[Gly(cBu)][Aad](NH2)[NMeF][Trp(1-Me)]K([CO-Piperazinyl(4-CH2COOH)])[Trp(1-Me)]TNC-NH2; thioether N-12) | < 1 | –
6 | CC(C)C[C@@H]1NC(=O)[C@H](CC(N)=O)NC(=O)[C@H](Cc2ccncc2)NC(=O)[C@H](Cc2ccccc2)NC(=O)CSC[C@@H](C(=O)NCC(N)=O)NC(=O)[C@H](Cc2cn(C)c3ccccc23)NC(=O)[C@H](Cc2ccc(N)nc2)NC(=O)[C@H](Cc2cn(C)c3ccccc23)NC(=O)[C@H](Cc2ccccc2)N(C)C(=O)[C@H](CCC(=O)O)NC1=O [PDC_EphA2-00022057-L092, F-4Py-N-L-E-MeF-W1Me-3Py6NH2-W1Me-C-G-NH2] ({CH2CO}-F[4Pal]NLE[NMeF][Trp(1-Me)][3Pal(6-NH2)][Trp(1-Me)]CG-NH2; thioether N-10) | 10 to 100 | –
7 | CN1C(=O)[C@H](CCC(=O)NC[C@H](O)[C@@H](O)[C@H](O)[C@H](O)CO)NC(=O)[C@H](C2CCC2)NC(=O)[C@H](CC(N)=O)NC(=O)[C@H](Cc2cccnc2)N(C)C(=O)[C@@H](Cc2cccc(C(N)=O)c2)NC(=O)CSC[C@@H](C(N)=O)NC(=O)[C@H](Cc2cn(C)c3ccccc23)NC(=O)[C@H](CCCCNC(N)=O)NC(=O)[C@H](Cc2cn(C)c3c(Cl)cccc23)NC(=O)[C@@H]1CCC(=O)O [PDC_EphA2-00026607, df3CON-Me3Py-N-Cbg-Qglucamine-MeE-W1Me7Cl-Hcit-W1Me-C-NH2] ({CH2CO}-[dPhe(3-CONH2)][NMe3Pal]N[Gly(cBu)]E(NH(1-deoxy-D-glucityl))[NMeE][Trp(1-Me,7-Cl)][hCit][Trp(1-Me)]C-NH2; thioether N-10) | < 1 | –
8 | {CH2CO}-[dPhe(3-CONH2)][NMeF]N[Gly(cBu)][Hgn(3)][NMeE][Trp(1-Me,7-Cl)][hCit][Trp(1-Me)]T[hArg]C-NH2 (thioether N-12) [PDC_EphA2-00019427] | – | ≤ 1

The next lines start with the values.

Row | Kd [1] [nM] | Kd [2] [nM] | Molecule
9 | < 1 | – | CN1C(=O)[C@H](CCCC(N)=O)NC(=O)[C@H](C2CCC2)NC(=O)[C@H](CC(N)=O)NC(=O)[C@H](Cc2cccnc2)N(C)C(=O)[C@@H](Cc2cccc(C(N)=O)c2)NC(=O)CSC[C@@H](C(N)=O)NC(=O)[C@H](Cc2cn(C)c3ccccc23)NC(=O)[C@H](CCCCNC(=O)N2CCN(CC(=O)O)CC2)NC(=O)[C@H](Cc2cn(C)c3c(Cl)cccc23)NC(=O)[C@@H]1CCC(=O)O [PDC_EphA2-00026606, df3CON-Me3Py-N-Cbg-Hgn-MeE-W1Me7Cl-KCOpipzaa-W1Me-C-NH2] ({CH2CO}-[dPhe(3-CONH2)][NMe3Pal]N[Gly(cBu)][Aad](NH2)[NMeE][Trp(1-Me,7-Cl)]K([CO-Piperazinyl(4-CH2COOH)])[Trp(1-Me)]C-NH2; thioether N-10)
10 | 100 to 400 | – | CC(=O)NCCCC[C@@H](NC(=O)[C@@H]1CSCC(=O)N[C@@H](Cc2ccccc2)C(=O)N[C@@H](Cc2ccnc(N)c2)C(=O)N[C@@H](CC(C)C)C(=O)N[C@@H](CCCCNC(N)=O)C(=O)N[C@@H](Cc2cn(C)c3ccccc23)C(=O)N(C)[C@@H](Cc2ccccc2)C(=O)N[C@@H](Cc2cn(C)c3ccccc23)C(=O)N1)C(N)=O [PDC_EphA2-00022603, F-4Py2NH2-L-Hcit-W1Me-MeF-W1Me-C-dkAc-NH2] ({CH2CO}-F[Ala(2-NH2-4-pyridyl)]L[hCit][Trp(1-Me)][NMeF][Trp(1-Me)]C[dK](Ac)-NH2; thioether N-8)
11 | < 1 | – | CNC(=O)C[C@@H]1NC(=O)[C@H](CC(C)C)NC(=O)[C@H](CC(N)=O)NC(=O)[C@H](Cc2cccnc2)N(C)C(=O)[C@@H](C)NC(=O)CSC[C@@H](C(N)=O)NC(=O)[C@H](CCCC(N)=O)NC(=O)[C@H]([C@@H](C)O)NC(=O)[C@H](Cc2cn(C)c3ccccc23)NC(=O)[C@H](CCCCNC(=O)N2CCN(CC(=O)O)CC2)NC(=O)[C@H](Cc2cn(C)c3ccccc23)NC(=O)[C@H](CCC(=O)O)N(C)C1=O [PDC_EphA2-00018531, da-Me3Py-N-L-Nmm-MeE-W1Me-KCOpipzaa-W1Me-T-Hgn-C-NH2] ({CH2CO}-[dA][NMe3Pal]NLD(NHMe)[NMeE][Trp(1-Me)]K([CO-Piperazinyl(4-CH2COOH)])[Trp(1-Me)]T[Aad](NH2)C-NH2; thioether N-12)
12 | < 1 | – | CC(=O)NCCCC[C@@H](NC(=O)CCNC(=O)[C@@H]1CSCC(=O)N[C@H](C)C(=O)N(C)[C@@H](Cc2cccnc2)C(=O)N[C@@H](CC(N)=O)C(=O)N[C@@H](CC(C)C)C(=O)N[C@@H](CCCC(=O)O)C(=O)N(C)[C@@H](CCC(=O)O)C(=O)N[C@@H](Cc2cn(C)c3ccccc23)C(=O)N[C@@H](CCCCNC(=O)N2CCN(CC(=O)O)CC2)C(=O)N[C@@H](Cc2cn(C)c3ccccc23)C(=O)N[C@@H]([C@@H](C)O)C(=O)N[C@@H](CCCC(N)=O)C(=O)N1)C(N)=O [PDC_EphA2-00008094, da-Me3Py-N-L-Hgl-MeE-W1Me-KCOpipzaa-W1Me-T-Hgn-C-bA-dkAc-NH2] ({CH2CO}-[dA][NMe3Pal]NL[Aad][NMeE][Trp(1-Me)]K([CO-Piperazinyl(4-CH2COOH)])[Trp(1-Me)]T[Aad](NH2)C[βAla][dK](Ac)-NH2; thioether N-12)
13 | – | ≤ 1 | {CH2CO}-[dPhe(3-CONH2)][NMe3Pal]N[Gly(cBu)][Hgn][NMe3Pal][Trp(1-Me,7-Cl)][Qglucamine][Trp(1-Me)]T[Hgn]C-NH2 (thioether N-12; SMILES C[C@@H](O)[C@@H]1NC(=O)[C@H](Cc2cn(C)c3ccccc23)NC(=O)[C@H](CCC(=O)NC[C@H](O)[C@@H](O)[C@H](O)[C@H](O)CO)NC(=O)[C@H](Cc2cn(C)c3c(Cl)cccc23)NC(=O)[C@H](Cc2cccnc2)N(C)C(=O)[C@H](CCCC(N)=O)NC(=O)[C@H](C2CCC2)NC(=O)[C@H](CC(N)=O)NC(=O)[C@H](Cc2cccnc2)N(C)C(=O)[C@@H](Cc2cccc(C(N)=O)c2)NC(=O)CSC[C@@H](C(N)=O)NC(=O)[C@H](CCCC(N)=O)NC1=O) [PDC_EphA2-00019437]
